Counter-ions that a name gives are not always drawn.

One may read the melting point as the temperature, or range, at which the solid turns liquid. Compound `CN(C)CCN(C)C(=O)COc1cc(Cl)ccc1C(=O)NCCN1CCN(Cc2ccc(Cl)c(Cl)c2)CC1` showed a melting point of 220 to 222 °C.
To `CN(C)C(=O)COc1cc(Cl)ccc1C(=O)NCCN1CCN(Cc2ccc(Cl)c(Cl)c2)CC1` (as salt: hydrochloride) [Example 3, 4-Chloro-N-{2-[4-(3,4-dichlorobenzyl)-1-piperazinyl]ethyl}-2-[2-(dimethylamino)-2-oxoethoxy]benzamide dihydrochloride] belongs 162 to 163 °C; to `CC(c1ccc(Cl)cc1)N1CCN(CCNC(=O)c2ccc(Cl)cc2OCC(=O)N(C)C)CC1` (stereo not drawn) (as salt: hydrochloride) [Example 9, 4-Chloro-N-(2-{4-[1-(4-chlorophenyl)ethyl]-1-piperazinyl}ethyl)-2-[2-(dimethylamino)-2-oxoethoxy]benzamide hydrochloride], 216 to 217 °C; to `CCN(CC)C(=O)COc1cc(Cl)ccc1C(=O)NCCN1CCN(Cc2ccc(Cl)c(Cl)c2)CC1` (as salt: hydrochloride) [Example 10, dihydrochloride], 185 to 188 °C.
With `CN(C)C(=O)COc1cc(Cl)ccc1C(=O)N(C)CCN1CCN(Cc2ccc(Cl)c(Cl)c2)CC1` (as salt: hydrochloride) [Example 13, 4-Chloro-N-{2-[4-(3,4-dichlorobenzyl)-1-piperazinyl]ethyl}-2-[2-dimethylamino)-2-oxoethoxy]-N-methylbenzamide trihydrochloride] the figure was 252 to 253 °C; with `CN(C)C(=O)COc1cc(Cl)ccc1C(=O)NCCN1CCN(C(c2ccccc2)c2ccccc2)CC1` (as salt: hydrochloride) [Example 14, N-[2-(4-Benzhydryl-1-piperazinyl)ethyl]-4-chloro-2-[2-(dimethylamino)-2-oxoethoxy]benzamide trihydrochloride], 228 to 229 °C.
With `CC1CN(Cc2ccc(Cl)c(Cl)c2)C(C)CN1CCNC(=O)c1ccc(Cl)cc1OCC(=O)N(C)C` (stereo not drawn) (as salt: hydrochloride) [Example 16, E-4-Chloro-N-{2-[4-(3,4-dichlorobenzyl)-2,5-dimethyl-1-piperazinyl]ethyl}-2-[2-(dimethylamino)-2-oxoethoxy]benzamide dihydrochloride] the figure was 220 to 221 °C; with `CN(C)C(=O)COc1cc(Cl)ccc1C(=O)NCCN1CCN(CCc2ccccc2)CC1` [Example 1, 4-Chloro-2-[2-(dimethylamino)-2-oxoethoxy]-N-[2-(4-phenethyl-1-piperazinyl)ethyl]benzamide], 159 to 160 °C.
`O=C(O)COc1cc(Cl)ccc1C(=O)NCCN1CCN(Cc2ccc(Cl)c(Cl)c2)CC1` [Example 2, 2-{5-Chloro-2-[({2-[4-(3,4-dichlorobenzyl)-1-piperazinyl]ethyl}amino)carbonyl]phenoxy}acetic acid]: the melting point was 118 to 120 °C.
With `CC(CO)NC(=O)COc1cc(Cl)ccc1C(=O)NCCN1CCN(Cc2ccc(Cl)c(Cl)c2)CC1` (stereo not drawn) [Example 4, 4-Chloro-N-{2-[4-(3,4-dichlorobenzyl)-1-piperazinyl]ethyl}-2-{2-[(2-hydroxy-1-methylethyl)amino]-2-oxoethoxy}benzamide] the figure was 115 to 116 °C; with `CC(C)(CO)NC(=O)COc1cc(Cl)ccc1C(=O)NCCN1CCN(Cc2ccc(Cl)c(Cl)c2)CC1` [Example 5, 4-Chloro-N-{2-[4-(3,4-dichlorobenzyl)-1-piperazinyl]ethyl}-2-{2[(2-hydroxy-1,1-dimethylethyl)amino]-2-oxoethoxy}benzamide], 77 to 78 °C.
The compound `CNC(=O)COc1cc(Cl)ccc1C(=O)NCCN1CCN(Cc2ccc(Cl)c(Cl)c2)CC1` [Example 6, 4-Chloro-N-{2-[4-(3,4-dichlorobenzyl)-1-piperazinyl]ethyl}-2-[2-(methylamino)-2-oxoethoxy]benzamide] registered a melting point of 137 to 138 °C.
With `O=C(NCCN1CCN(Cc2ccc(Cl)c(Cl)c2)CC1)c1ccc(Cl)cc1OCC(=O)N1CCCC1` [Example 7, 4-Chloro-N-{2-[4-(3,4-dichlorobenzyl)-1-piperazinyl]ethyl}-2-[2-oxo-2-(1-pyrrolidinyl)ethoxy]benzamide], the melting point lay in the range of 157 to 158 °C.
With `NC(=O)COc1cc(Cl)ccc1C(=O)NCCN1CCN(Cc2ccc(Cl)c(Cl)c2)CC1` [Example 8, 2-(2-Amino-2-oxoethoxy)-4-chloro-N-{2-[4-(3,4-dichlorobenzyl)-1-piperazinyl]ethyl}benzamide] the figure was 120 to 122 °C; with `O=C(O)CNC(=O)COc1cc(Cl)ccc1C(=O)NCCN1CCN(Cc2ccc(Cl)c(Cl)c2)CC1` [Example 12, 2-[(2-{5-Chloro-2-[({2-[4-(3,4-dichlorobenzyl)-1-piperazinyl]ethyl}amino)carbonyl]phenoxy}acetyl)amino]acetic acid], 214 to 216 °C.

The values above are taken from patent US6562825B1, “Piperazine derivatives as modulators of chemokine receptor activity” (Astrazeneca UK Limited, priority 1999, dated 2003).
